From the supplement of paper PMC10307832

How the values were obtained:
Bicalutamide = compound: CC(O)(CS(=O)(=O)c1ccc(F)cc1)C(=O)Nc1ccc(C#N)c(C(F)(F)F)c1 [Bicalutamide]; test: relative viability (nuclei count vs DMSO), 5 days (fraction); higher = more cells survive
How it was run: (§1)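 Lung cancer cell lines in 1536-well plates were exposed by pinning to five library-drug doses (not always all listed) √10 apart, following an overnight hold at 37 °C. MetaXpress counted Hoechst-stained nuclei from 4× images taken after 5 days without medium change. Viability is the median ratio of treated-well to vehicle-well nuclei across plates. Plates required control CV below 25% and at least one doubling.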

Bromopyruvate = compound: C(C(=O)C(=O)O)Br [Bromopyruvate]; test: as above
How it was run: as §1

| Cell Line | relative viability (Bicalutamide; 0.08 µM) | relative viability (Bicalutamide; 0.253 µM) | relative viability (Bicalutamide; 0.8 µM) | relative viability (Bicalutamide; 2.53 µM) | relative viability (Bromopyruvate; 1 µM) | relative viability (Bromopyruvate; 3.162 µM) | relative viability (Bromopyruvate; 10 µM) | relative viability (Bromopyruvate; 31.62 µM) | relative viability (Bromopyruvate; 100 µM) |
| --- | --- | --- | --- | --- | --- | --- | --- | --- | --- |
| NCI-H2087 | 1.09 | 1.06 | 1.25 | 1.07 | 0.947 | 1.07 | 1.09 | 1.04 | 0.974 |
| NCI-H2126 | 0.967 | 0.949 | 1.01 | 0.95 | 1.03 | 0.995 | 1.05 | 0.958 | 1.03 |
| NCI-H2170 | 0.916 | 0.931 | 1.1 | 0.987 | 0.938 | 0.947 | 0.95 | 0.969 | 1.01 |
| NCI-H2228 | 0.798 | 0.967 | 1.56 | 1.09 | 1.07 | 1.04 | 1.27 | 0.851 | 1.02 |
| NCI-H2342 | 1.06 | 0.978 | 1.07 | 1.03 | 0.975 | 0.912 | 1.02 | 0.949 | 0.903 |
| NCI-H2347 | 1.1 | 0.913 | 1.19 | 1.03 | 1.06 | 0.956 | 1.01 | 0.837 | 1.03 |
| NCI-H2405 | 1.07 | 0.968 | 1.18 | 0.926 | 1.06 | 0.968 | 0.984 | 0.873 | 1.05 |
| NCI-H3122 | 1.03 | 0.977 | 1.01 | 1.03 | 0.992 | 1.01 | 0.999 | 0.972 | 1.01 |
| PC-3 [JPC-3] | 1.07 | 1.03 | 1.16 | 1.03 | 1.08 | 1.04 | 0.986 | 1.01 | 1.04 |
| PC-14 | 1.02 | 1.01 | 1.15 | 0.976 | 1.05 | 1.07 | 1.09 | 0.997 | 0.943 |
